# Laboratory results: US20060106207A1, “Nucleotide sequences that encode deregulated phosphoglycerate dehydrogenases of coryneform bacteria and method for producing l-serine” (Forschungszentrum Julich GMBH, priority 2002, published 2006)
# B1: serAΔ197: serA allele coding for PGD with deletion of 197 C-terminal amino acids, SEQ ID No. 1 / 7 (protein, listed as Corynebacterium glutamicum)
# chain: MSQNGRPVVLIADKLAQSTVDALGDAVEVRWVDGPNRPELLDAVKEADALLVRSATTVDAEVIAAAPNLKIVGRAGVGLDNVDIPAATEAGVMVANAPTSNIHSACEHAISLLLSTARQIPAADATLREGEWKRSSFNGVEIFGKTVGIVGFGHIGQLFAQRLAAFETTIVAYDPYANPARAAQLNVELVELDELMSRSDFVTIHLPKTKETAGMFDAQLLAKSKKGQIIINAARGGLVDEQALADAIESGHIRGAGFDVYSTEPCTDSPLFKLPQVVVTPHLGASTEEAQDRAGTDVADSVLKALAGEFVADAVNVSGGRVGEEVAVWMDLA
# Legend:
# Format in all cases: biochemical, Corynebacterium glutamicum
# [1] = system: Wild Type 3-Phosphoglycerate-Dehydrogenase of C. glutamicum; experiment: Inhibition of wild type 3-phosphoglycerate-dehydrogenase by L-serine in cell-free extracts
# Procedure: (§1) The cells were harvested in the exponential growth phase at OD600 of 5 to 8 and washed twice in 100 mM Tris-HCl, pH 7.5. The cell pellets were then frozen at −20° C. until disintegration. The frozen cell pellets were moisturized on ice and resuspended with 2 ml cold Tris-HCl pH 7.5/10% glycerine in a Brenson sonifier for 10 minutes. Then the cell fragments were separated by centrifugation at 13000 rpm and 4° C. in a Sigma -202 MK centrifuge. The thus obtained supernatant is desalted as a raw extract initially on a PD-10 column using the conditions set by the manufacturer (Amersham Pharmacia Biotech) and then immediately subjected to enzyme measurement. The enzyme test relied upon the photometric detection of the formation of NADH in the reaction of 3-phosphoglycerate and NAD to NADH.
# In the following tests were made whether the C-terminus foreshortened mutant serAΔ197 was no longer blocked by L-serine. For that purpose initially the inhibition of the 3-phosphoglycerate-dehydrogenase of the wild type was investigated in cell-free extracts of C. glutamicum by L-serine based upon the above described enzyme tests. For that purpose to the test bath were added 1, 5 and 10 mM L-serine and were incubated for 5 minutes at 30° C. The reaction was then started by the addition of 15 mM […]. The incubation was necessary in order to be able to detect an inhibition (Table 4). This time dependency of the L-serine inhibition which required several minutes of incubation before a constant level of inhibition was reached has also been described for other 3-phosphoglycerate-dehydrogenase, for example for the purified enzyme of B. subtilis (Saski R. and Pitzer L., 1975, Eur. J. Biochem., 51:415-427).
# [2] = system: overexpressed 3-phosphoglycerate-dehydrogenase in strain 13032pZ1serA; experiment: Inhibition of the overexpressed 3-phosphoglycerate-dehydrogenase by L-serine in strain 13032pZ1serA; details: 10 mM L-serine, 5 minutes of incubation at 30° C.
# Procedure: as §1
# (§2) In the following tests were made whether the C-terminus foreshortened mutant serAΔ197 was no longer blocked by L-serine. For that purpose initially the inhibition of the 3-phosphoglycerate-dehydrogenase of the wild type was investigated in cell-free extracts of C. glutamicum by L-serine based upon the above described enzyme tests. For that purpose to the test bath were added 1, 5 and 10 mM L-serine and were incubated for 5 minutes at 30° C. The reaction was then started by the addition of 15 mM […]. […]
# [3] = system: C-terminal foreshortened 3-phosphoglycerate-dehydrogenase mutant (serAΔ197) in strain 13032pZ1serAΔ197; experiment: Inhibition of the overexpressed 3-phosphoglycerate-dehydrogenase by L-serine in strain 13032pZ1serAΔ197
# Procedure: as §1, §2
# [4] = system: 3-phosphoglycerate-dehydrogenase; experiment: 3-phosphoglycerate-dehydrogenase enzyme test of strains overexpressing serA or shortened serA alleles
# Procedure: The plasmids pziserA, pZiserAΔ79, pZiserAΔ188), pZiserAΔ197, pZiserAΔ205 and pZiserAΔ211 were introduced by electroporation individually into C. glutamicum. As a control, the media plasmid pZ1 was also electroporated into C. glutamicum ATCC 13032. The thus obtained strains 13032pZ1, 13032pZ1serA, 13032pZiserAΔ79, 13032pZiserAΔ188, 13032pZiserAΔ197, 13032pZiserAΔ205 and 13032pZiserAΔ211 were analyzed for overexpression of the 3-phosphoglycerate-dehydrogenase by means of is the 3-phosphoglycerate-dehydrogenase enzyme test. For this purpose the […] strains were activated in complex medium (CgIII=2.5 g NaCl, 10 g bacto-peptone, 10 g bacto-yeast extract, pH 7.4 with 2% glucose) and the minimal medium CGXII and each was separately seeded from the preculture. The medium was identical with the medium CGXII described by Keilhauer et al (Journal of Bacteriology (1993) 175: 5593-5603) but containing additionally 25 μg/mL of kanamycin.
# The cells were harvested in the exponential growth phase at OD600 of 5 to 8 and washed twice in 100 mM Tris-HCl, pH 7.5. The cell pellets were then frozen at −20° C. until disintegration. […]
# With these test results a specific activity of about 150 mU/mg protein can be determined for the wild-type 3-phosphoglycerate-dehydrogenase activity. […]
Molecule,"Relative 3-Phosphoglycerate-Dehydrogenase Activity ([1]; 1 mM L-serine, 5 minute incubation at 30° C.)","Relative 3-Phosphoglycerate-Dehydrogenase Activity ([1]; 1 mM L-serine, without incubation)","Relative 3-Phosphoglycerate-Dehydrogenase Activity ([1]; 5 mM L-serine, 5 minute incubation at 30° C.)","Relative 3-Phosphoglycerate-Dehydrogenase Activity ([1]; 5 mM L-serine, without incubation)","Relative 3-Phosphoglycerate-Dehydrogenase Activity ([1]; 10 mM L-serine, 5 minute incubation at 30° C.)","Relative 3-Phosphoglycerate-Dehydrogenase Activity ([1]; 10 mM L-serine, without incubation)",Relative 3-Phosphoglycerate-Dehydrogenase Activity [2],L-serine inhibition of the foreshortened mutant (in words) [3],"Relative 3-Phosphoglycerate-Dehydrogenase Activity ([3]; 10 mM L-serine, 5 minutes of incubation at 30° C.)",share of the wild type activity ([4]; compared with overexpressed wild type),overexpression / increase in specific 3-phosphoglycerate-dehydrogenase activity ([4]; with respect to the wild type protein)
"N[C@@H](CO)C(=O)O [L-Serine, L-serine]",96%,106%,82%,112%,56%,104%,34%,no longer was significantly limited,95%,–,–
B1,–,–,–,–,–,–,–,–,–,more than 60%,10 fold
